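In this assay, cells in 96-well plates receive the compound at five concentrations for 48 hours. Endpoints are linearly interpolated between the surrounding concentrations. TGI: total growth inhibition.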
What was measured:
Test in all cases: NCI anticancer screen, dose series, 48 h
[1] = tested on: DU-145 prostate
[2] = tested on: EKVX NSCLC
[3] = tested on: HCT-116 colon
[4] = tested on: HCT-15 colon
[5] = tested on: HOP-62 NSCLC
[6] = tested on: IGROV1 ovarian
[7] = tested on: KM12 colon
[8] = tested on: LOX IMVI melanoma
[9] = tested on: MALME-3M melanoma
[10] = tested on: MDA-MB-435
[11] = tested on: NCI-H460 lung
[12] = tested on: NCI/ADR-RES ovarian
[13] = tested on: OVCAR-4 ovarian
[14] = tested on: OVCAR-8 ovarian
[15] = tested on: PC-3 prostate
[16] = tested on: RXF 393 renal
[17] = tested on: SF-295 CNS
[18] = tested on: SK-MEL-28 melanoma
[19] = tested on: SK-MEL-5 melanoma
[20] = tested on: SW-620 colon

Row | SMILES | TGI [1] | TGI [2] | TGI [3] | TGI [4] | TGI [5] | TGI [6] | TGI [7] | TGI [8] | TGI [9] | TGI [10] | TGI [11] | TGI [12] | TGI [13] | TGI [14] | TGI [15] | TGI [16] | TGI [17] | TGI [18] | TGI [19] | TGI [20]
1 | C[N+](C)(C)/N=C/c1ccc(O)c(O)c1 | > 100 µM | > 100 µM | > 100 µM | > 100 µM | > 100 µM | > 100 µM | > 100 µM | > 100 µM | > 100 µM | > 100 µM | > 100 µM | > 100 µM | > 100 µM | > 100 µM | > 100 µM | > 100 µM | > 100 µM | > 96.4 µM | > 100 µM | > 100 µM
2 | Cc1c(-c2ccccc2)c(C#N)c2nnn(C3CCCCC3)c(=O)n12 | > 100 µM | > 100 µM | > 100 µM | > 100 µM | 46.6 µM | > 100 µM | > 100 µM | > 100 µM | > 100 µM | > 100 µM | > 100 µM | > 100 µM | > 100 µM | > 100 µM | > 100 µM | 71.7 µM | > 100 µM | > 100 µM | > 100 µM | > 100 µM
3 | COc1cc2c(cc1OC)CN1CCCc3cc(OC)c(OC)cc3C1C2 (stereo not given) | > 100 µM | > 100 µM | > 100 µM | > 100 µM | > 100 µM | > 100 µM | > 100 µM | > 100 µM | > 100 µM | 47.5 µM | > 100 µM | > 100 µM | > 100 µM | > 100 µM | > 100 µM | 94.4 µM | > 100 µM | > 100 µM | > 100 µM | > 100 µM
4 | OC(c1cc2ccccc2[nH]1)C1(c2cccnc2)SCCCS1 (stereo not given) | > 100 µM | > 100 µM | > 100 µM | > 100 µM | > 100 µM | > 100 µM | 82 µM | > 100 µM | > 100 µM | > 100 µM | > 100 µM | > 100 µM | > 100 µM | > 100 µM | > 100 µM | > 100 µM | > 100 µM | > 100 µM | > 100 µM | > 100 µM
5 | COc1cccc2c3ccccc3c3nc[nH]c3c12 | > 100 µM | > 100 µM | > 100 µM | 97.1 µM | > 100 µM | > 100 µM | > 100 µM | > 100 µM | > 100 µM | > 94.6 µM | > 69.2 µM | > 100 µM | > 100 µM | > 100 µM | > 100 µM | > 100 µM | 46.4 µM | > 77.2 µM | 30.4 µM | > 71.2 µM
6 | CC1(C)OCC(C2OC(OC(=O)c3ccc([N+](=O)[O-])cc3)C3OC(C)(C)OC23)O1 (stereo not given) | > 100 µM | > 100 µM | > 100 µM | > 100 µM | > 100 µM | > 100 µM | > 100 µM | > 100 µM | > 100 µM | > 100 µM | > 100 µM | > 100 µM | > 100 µM | > 100 µM | > 100 µM | > 100 µM | > 100 µM | > 100 µM | > 100 µM | > 100 µM

— PubChem BioAssay (NCI)
